Measurements reported in US20230391768A2, “IMIDAZOPYRIDINE DERIVATIVES AND AZA-IMIDAZOPYRIDINE DERIVATIVES AS JANUS KINASE 2 INHIBITORS AND USES THEREOF” (Dana-Farber Cancer Institute, Inc., priority 2018, published 2023).

Columns and labels:
Experiment in all cases: KINOMEscan
Type in all cases: binding
LIMK1 = LIMK1 (Homo sapiens (Human), UniProt P53667); conditions: read-out: percent of control
Method: (§1) In vitro profiling of Compound I-2 (1 μM) was performed using the DiscoveRx KINOMEscan® platform.

LCK = LCK (Homo sapiens (Human), UniProt P06239); conditions: read-out: percent of control
Method: as §1

SNARK = SNARK (Homo sapiens (Human), UniProt Q9H093); conditions: read-out: percent of control
Method: as §1

SYK = SYK (Homo sapiens (Human), UniProt P43405); conditions: read-out: percent of control
Method: as §1

ABL2 = ABL2 (Homo sapiens (Human), UniProt P42684); conditions: read-out: percent of control
Method: as §1

YANK1 = YANK1 (Homo sapiens (Human), UniProt Q8WU08); conditions: read-out: percent of control
Sequence of YANK1 (Q8WU08 whole entry): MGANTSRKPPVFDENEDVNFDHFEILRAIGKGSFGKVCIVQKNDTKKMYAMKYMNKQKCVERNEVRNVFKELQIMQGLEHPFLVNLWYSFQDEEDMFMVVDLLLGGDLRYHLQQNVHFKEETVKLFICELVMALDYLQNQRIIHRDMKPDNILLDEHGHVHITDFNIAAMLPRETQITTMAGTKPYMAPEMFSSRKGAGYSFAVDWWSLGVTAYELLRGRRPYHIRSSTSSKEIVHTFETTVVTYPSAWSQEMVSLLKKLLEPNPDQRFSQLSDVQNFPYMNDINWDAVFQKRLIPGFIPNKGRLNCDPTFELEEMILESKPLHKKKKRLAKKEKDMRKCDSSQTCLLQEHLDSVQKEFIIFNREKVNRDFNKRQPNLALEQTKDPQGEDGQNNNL
Method: as §1

MLK3 = MLK3 (Homo sapiens (Human), UniProt Q16584); conditions: read-out: percent of control
Method: as §1

MAP3K1 = MAP3K1 (Homo sapiens (Human), UniProt Q13233); conditions: read-out: percent of control
Method: as §1

VEGFR2 = VEGFR2 (Homo sapiens (Human), UniProt P35968); conditions: read-out: percent of control
Sequence of VEGFR2 (P35968 20-1356): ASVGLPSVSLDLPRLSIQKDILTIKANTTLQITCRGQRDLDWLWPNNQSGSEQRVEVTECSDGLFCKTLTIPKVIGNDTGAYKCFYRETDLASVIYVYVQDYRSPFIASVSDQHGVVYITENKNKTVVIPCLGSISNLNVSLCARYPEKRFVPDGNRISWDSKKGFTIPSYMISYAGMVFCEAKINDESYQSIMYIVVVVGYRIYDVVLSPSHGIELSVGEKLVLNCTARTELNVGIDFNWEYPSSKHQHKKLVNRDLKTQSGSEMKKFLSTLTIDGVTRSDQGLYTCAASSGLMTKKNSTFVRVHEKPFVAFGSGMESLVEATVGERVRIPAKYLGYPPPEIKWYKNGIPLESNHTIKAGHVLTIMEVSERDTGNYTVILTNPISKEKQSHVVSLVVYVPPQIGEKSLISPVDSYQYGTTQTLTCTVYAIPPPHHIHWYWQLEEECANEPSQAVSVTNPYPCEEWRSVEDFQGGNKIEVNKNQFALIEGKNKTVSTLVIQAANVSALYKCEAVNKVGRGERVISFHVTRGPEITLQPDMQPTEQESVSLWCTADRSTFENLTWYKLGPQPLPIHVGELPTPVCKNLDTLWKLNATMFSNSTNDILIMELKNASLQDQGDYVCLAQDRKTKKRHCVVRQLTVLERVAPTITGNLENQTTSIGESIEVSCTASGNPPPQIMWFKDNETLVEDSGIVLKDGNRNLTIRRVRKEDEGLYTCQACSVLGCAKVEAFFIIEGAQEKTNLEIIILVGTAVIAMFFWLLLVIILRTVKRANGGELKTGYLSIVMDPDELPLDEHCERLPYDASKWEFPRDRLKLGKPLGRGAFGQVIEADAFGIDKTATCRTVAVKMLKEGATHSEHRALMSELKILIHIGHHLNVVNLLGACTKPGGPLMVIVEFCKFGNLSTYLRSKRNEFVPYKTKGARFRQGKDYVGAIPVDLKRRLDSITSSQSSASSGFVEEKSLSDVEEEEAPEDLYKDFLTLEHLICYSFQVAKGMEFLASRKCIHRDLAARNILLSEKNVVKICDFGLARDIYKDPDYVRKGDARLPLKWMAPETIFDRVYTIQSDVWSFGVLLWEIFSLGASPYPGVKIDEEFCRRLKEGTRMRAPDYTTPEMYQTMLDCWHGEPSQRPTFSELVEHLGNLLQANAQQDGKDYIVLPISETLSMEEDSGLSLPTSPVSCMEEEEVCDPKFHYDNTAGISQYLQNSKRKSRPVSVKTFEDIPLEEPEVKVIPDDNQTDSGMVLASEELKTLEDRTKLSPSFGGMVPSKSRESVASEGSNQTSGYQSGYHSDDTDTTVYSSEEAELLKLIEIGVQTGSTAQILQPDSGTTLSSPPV
Method: as §1

CSNK1A1L = CSNK1A1L (Homo sapiens (Human), UniProt Q8N752); conditions: read-out: percent of control
Sequence of CSNK1A1L (Q8N752 whole entry): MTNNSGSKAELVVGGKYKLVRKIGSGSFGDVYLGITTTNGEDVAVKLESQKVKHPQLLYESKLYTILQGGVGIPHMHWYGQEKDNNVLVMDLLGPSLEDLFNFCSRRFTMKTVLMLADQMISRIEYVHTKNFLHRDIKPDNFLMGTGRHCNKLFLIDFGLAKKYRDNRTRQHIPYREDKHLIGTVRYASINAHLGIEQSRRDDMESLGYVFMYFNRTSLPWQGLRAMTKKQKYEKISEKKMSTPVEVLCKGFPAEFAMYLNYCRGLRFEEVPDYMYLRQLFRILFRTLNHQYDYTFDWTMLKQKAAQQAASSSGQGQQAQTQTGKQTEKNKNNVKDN
Method: as §1

ACVR2A = ACVR2A (Homo sapiens (Human), UniProt P27037); conditions: read-out: percent of control
Method: as §1

BRK = BRK (Homo sapiens (Human), UniProt Q13882); conditions: read-out: percent of control
Method: as §1

FLT4 = FLT4 (Homo sapiens (Human), UniProt P35916); conditions: read-out: percent of control
Method: as §1

CAMK4 = CAMK4 (Homo sapiens (Human), UniProt Q16566); conditions: read-out: percent of control
Sequence of CAMK4 (Q16566 whole entry): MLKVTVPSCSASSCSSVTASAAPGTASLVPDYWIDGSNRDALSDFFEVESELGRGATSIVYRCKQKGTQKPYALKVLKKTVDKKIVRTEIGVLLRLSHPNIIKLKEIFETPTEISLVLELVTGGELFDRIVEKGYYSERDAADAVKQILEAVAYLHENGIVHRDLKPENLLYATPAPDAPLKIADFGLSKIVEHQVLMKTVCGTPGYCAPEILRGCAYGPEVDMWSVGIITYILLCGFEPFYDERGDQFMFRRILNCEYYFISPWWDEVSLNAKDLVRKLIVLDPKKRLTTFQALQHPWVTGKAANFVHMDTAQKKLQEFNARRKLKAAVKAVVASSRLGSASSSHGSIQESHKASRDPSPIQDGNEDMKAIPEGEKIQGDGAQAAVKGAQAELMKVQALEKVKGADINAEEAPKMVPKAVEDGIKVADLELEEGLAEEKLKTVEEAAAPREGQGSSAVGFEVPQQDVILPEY
Method: as §1

FYN = FYN (Homo sapiens (Human), UniProt P06241); conditions: read-out: percent of control
Sequence of FYN (P06241 whole entry): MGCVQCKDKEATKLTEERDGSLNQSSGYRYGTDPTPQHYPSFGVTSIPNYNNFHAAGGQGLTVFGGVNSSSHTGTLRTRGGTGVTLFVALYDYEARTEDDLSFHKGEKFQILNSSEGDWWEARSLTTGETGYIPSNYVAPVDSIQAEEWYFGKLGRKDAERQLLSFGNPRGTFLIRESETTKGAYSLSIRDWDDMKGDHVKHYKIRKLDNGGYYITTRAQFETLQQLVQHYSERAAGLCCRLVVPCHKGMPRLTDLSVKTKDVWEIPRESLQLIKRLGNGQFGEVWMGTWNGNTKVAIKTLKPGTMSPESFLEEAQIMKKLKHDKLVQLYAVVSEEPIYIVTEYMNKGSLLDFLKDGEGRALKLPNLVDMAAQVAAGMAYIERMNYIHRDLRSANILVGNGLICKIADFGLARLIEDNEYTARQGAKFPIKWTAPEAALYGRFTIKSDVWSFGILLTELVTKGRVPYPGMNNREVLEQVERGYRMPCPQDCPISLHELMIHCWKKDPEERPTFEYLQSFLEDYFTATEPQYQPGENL
Method: as §1

ACVR2B = ACVR2B (Homo sapiens (Human), UniProt Q13705); conditions: read-out: percent of control
Sequence of ACVR2B (Q13705 19-512): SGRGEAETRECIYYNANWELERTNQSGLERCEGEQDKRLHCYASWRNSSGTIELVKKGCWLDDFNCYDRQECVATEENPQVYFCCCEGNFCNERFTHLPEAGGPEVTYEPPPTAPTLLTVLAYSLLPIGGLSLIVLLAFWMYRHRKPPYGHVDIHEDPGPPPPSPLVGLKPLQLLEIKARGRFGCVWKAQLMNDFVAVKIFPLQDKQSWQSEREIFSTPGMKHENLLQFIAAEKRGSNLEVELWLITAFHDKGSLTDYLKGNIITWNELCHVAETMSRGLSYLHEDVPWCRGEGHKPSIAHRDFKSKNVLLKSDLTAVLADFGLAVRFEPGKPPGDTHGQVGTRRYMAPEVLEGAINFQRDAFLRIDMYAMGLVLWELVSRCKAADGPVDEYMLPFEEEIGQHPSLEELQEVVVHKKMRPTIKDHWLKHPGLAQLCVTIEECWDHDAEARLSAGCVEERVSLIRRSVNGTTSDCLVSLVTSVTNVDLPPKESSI
Method: as §1

EGFR(L861Q) = EGFR(L861Q) (Homo sapiens (Human), UniProt P00533, L861Q); conditions: read-out: percent of control
Method: as §1

FGFR4 = FGFR4 (Homo sapiens (Human), UniProt P22455); conditions: read-out: percent of control
Method: as §1

VRK2 = VRK2 (Homo sapiens (Human), UniProt Q86Y07); conditions: read-out: percent of control
Method: as §1

RIPK5 = RIPK5 (Homo sapiens (Human), UniProt Q6XUX3); conditions: read-out: percent of control
Method: as §1

PIK3CD = PIK3CD (Homo sapiens (Human), UniProt O00329); conditions: read-out: percent of control
Method: as §1

PRKCI = PRKCI (Homo sapiens (Human), UniProt P41743); conditions: read-out: percent of control
Method: as §1

LATS1 = LATS1 (Homo sapiens (Human), UniProt O95835); conditions: read-out: percent of control
Method: as §1

TAK1 = TAK1 (Homo sapiens (Human), UniProt O43318); conditions: read-out: percent of control
Method: as §1

ARK5 = ARK5 (Homo sapiens (Human), UniProt O60285); conditions: read-out: percent of control
Sequence of ARK5 (O60285 whole entry): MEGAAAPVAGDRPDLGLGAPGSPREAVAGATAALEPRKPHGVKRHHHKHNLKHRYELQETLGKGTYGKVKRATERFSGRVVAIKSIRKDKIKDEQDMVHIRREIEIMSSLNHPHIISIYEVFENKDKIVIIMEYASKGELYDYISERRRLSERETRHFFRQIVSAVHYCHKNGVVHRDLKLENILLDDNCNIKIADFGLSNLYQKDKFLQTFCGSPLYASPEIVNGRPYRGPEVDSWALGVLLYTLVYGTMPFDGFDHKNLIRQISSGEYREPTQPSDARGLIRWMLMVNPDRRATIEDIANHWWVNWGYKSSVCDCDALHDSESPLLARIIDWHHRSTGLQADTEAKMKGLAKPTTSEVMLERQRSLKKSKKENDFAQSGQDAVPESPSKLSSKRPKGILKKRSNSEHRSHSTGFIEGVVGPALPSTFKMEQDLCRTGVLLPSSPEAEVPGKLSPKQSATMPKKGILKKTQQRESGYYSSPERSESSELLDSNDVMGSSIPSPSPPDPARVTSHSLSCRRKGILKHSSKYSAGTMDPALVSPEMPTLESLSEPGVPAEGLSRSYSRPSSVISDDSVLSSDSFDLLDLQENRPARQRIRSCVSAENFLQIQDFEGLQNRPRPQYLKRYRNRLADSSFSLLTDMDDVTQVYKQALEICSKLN
Method: as §1

PIP5K1C = PIP5K1C (Homo sapiens (Human), UniProt O60331); conditions: read-out: percent of control
Method: as §1

ULK3 = ULK3 (Homo sapiens (Human), UniProt Q6PHR2); conditions: read-out: percent of control
Method: as §1

MAP4K2 = MAP4K2 (Homo sapiens (Human), UniProt Q12851); conditions: read-out: percent of control
Method: as §1

AKT2 = AKT2 (Homo sapiens (Human), UniProt P31751); conditions: read-out: percent of control
Method: as §1

LIMK2 = LIMK2 (Homo sapiens (Human), UniProt P53671); conditions: read-out: percent of control
Sequence of LIMK2 (P53671 whole entry): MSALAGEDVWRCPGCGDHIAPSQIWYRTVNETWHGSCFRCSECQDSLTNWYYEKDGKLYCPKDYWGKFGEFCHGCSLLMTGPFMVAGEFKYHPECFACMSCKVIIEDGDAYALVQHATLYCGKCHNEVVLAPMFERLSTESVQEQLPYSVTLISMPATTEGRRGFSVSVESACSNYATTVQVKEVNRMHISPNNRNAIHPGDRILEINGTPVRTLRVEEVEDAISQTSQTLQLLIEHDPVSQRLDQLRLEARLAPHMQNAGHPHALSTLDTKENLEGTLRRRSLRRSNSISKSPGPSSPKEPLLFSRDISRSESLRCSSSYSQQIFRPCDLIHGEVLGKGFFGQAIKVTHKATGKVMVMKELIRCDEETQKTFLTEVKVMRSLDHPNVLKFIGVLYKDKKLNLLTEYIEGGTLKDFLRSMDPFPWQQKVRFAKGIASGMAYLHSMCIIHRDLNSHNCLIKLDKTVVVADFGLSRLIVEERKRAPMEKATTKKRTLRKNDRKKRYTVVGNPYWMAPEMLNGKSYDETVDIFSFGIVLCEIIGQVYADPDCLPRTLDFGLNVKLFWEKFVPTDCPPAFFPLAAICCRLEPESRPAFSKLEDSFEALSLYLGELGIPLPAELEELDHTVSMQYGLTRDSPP
Method: as §1

FES = FES (Homo sapiens (Human), UniProt P07332); conditions: read-out: percent of control
Method: as §1

EGFR(L858R) = EGFR(L858R) (Homo sapiens (Human), UniProt P00533, L858R); conditions: read-out: percent of control
Method: as §1

NEK2 = NEK2 (Homo sapiens (Human), UniProt P51955); conditions: read-out: percent of control
Method: as §1

ROCK1 = ROCK1 (Homo sapiens (Human), UniProt Q13464); conditions: read-out: percent of control
Method: as §1

SNRK = SNRK (Homo sapiens (Human), UniProt Q9NRH2); conditions: read-out: percent of control
Method: as §1

EPHA7 = EPHA7 (Homo sapiens (Human), UniProt Q15375); conditions: read-out: percent of control
Method: as §1

CIT = CIT (Homo sapiens (Human), UniProt O14578); conditions: read-out: percent of control
Method: as §1

MINK = MINK (Homo sapiens (Human), UniProt Q8N4C8); conditions: read-out: percent of control
Method: as §1

EGFR(L747-T751del,Sins) = conditions: 1 μM
Method: as §1

Compound | remaining binding at 1 µM (LIMK1) [%] | remaining binding at 1 µM (LCK) [%] | remaining binding at 1 µM (SNARK) [%] | remaining binding at 1 µM (SYK) [%] | remaining binding at 1 µM (ABL2) [%] | remaining binding at 1 µM (YANK1) [%] | remaining binding at 1 µM (MLK3) [%] | remaining binding at 1 µM (MAP3K1) [%] | remaining binding at 1 µM (VEGFR2) [%] | remaining binding at 1 µM (CSNK1A1L) [%] | remaining binding at 1 µM (ACVR2A) [%] | remaining binding at 1 µM (BRK) [%] | remaining binding at 1 µM (FLT4) [%] | remaining binding at 1 µM (CAMK4) [%] | remaining binding at 1 µM (FYN) [%] | remaining binding at 1 µM (ACVR2B) [%] | remaining binding at 1 µM (EGFR(L861Q)) [%] | remaining binding at 1 µM (FGFR4) [%] | remaining binding at 1 µM (VRK2) [%] | remaining binding at 1 µM (RIPK5) [%] | other results
CCN1CCN(Cc2cc(NC(=O)c3ccc(C)c(-c4ccc5nc(NC(=O)C6CC6)cn5c4)c3)cc(C(F)(F)F)c2)CC1 [Compound I-6, 3-(2-(cyclopropanecarboxamido)imidazo[1,2-a]pyridin-6-yl)-N-(3-((4-ethylpiperazin-1-yl)methyl)-5-(trifluoromethyl)phenyl)-4-methylbenzamide] | 96 | 0.1 | 100 | 0.65 | 0.4 | 93 | 82 | 94 | 2 | 97 | 100 | 91 | 0.3 | 96 | 3.7 | 100 | 54 | 100 | 92 | 100 | remaining binding at 1 µM (PIK3CD): 69%; remaining binding at 1 µM (PRKCI): 100%; remaining binding at 1 µM (LATS1): 85%; remaining binding at 1 µM (TAK1): 2.7%; remaining binding at 1 µM (ARK5): 100%; remaining binding at 1 µM (PIP5K1C): 94%; remaining binding at 1 µM (ULK3): 100%; remaining binding at 1 µM (MAP4K2): 0.2%; remaining binding at 1 µM (AKT2): 98%; remaining binding at 1 µM (LIMK2): 100%; remaining binding at 1 µM (FES): 0.95%; remaining binding at 1 µM (EGFR(L858R)): 71%; remaining binding at 1 µM (NEK2): 100%; remaining binding at 1 µM (ROCK1): 100%; remaining binding at 1 µM (SNRK): 99%; remaining binding at 1 µM (EPHA7): 2%; remaining binding at 1 µM (CIT): 0.35%; remaining binding at 1 µM (MINK): 2.4%; percent of control (EGFR(L747-T751del,Sins)): 12%
CCN1CCN(Cc2cc(NC(=O)c3ccc(C)c(-c4ccc5nc(NC(=O)C6CC6)cn5n4)c3)cc(C(F)(F)F)c2)CC1 [Compound I-2, 3-(2-(cyclopropanecarboxamido)imidazo[1,2-b]pyridazin-6-yl)-N-(3-((4-ethylpiperazin-1-yl)methyl)-5-(trifluoromethyl)phenyl)-4-methylbenzamide] | 87 | 0 | 100 | 1.9 | 0.4 | 93 | 76 | 97 | 1.4 | 100 | 63 | 100 | 0.05 | 94 | 4.1 | 96 | 82 | 100 | 88 | 89 | remaining binding at 1 µM (PIK3CD): 100%; remaining binding at 1 µM (PRKCI): 66%; remaining binding at 1 µM (LATS1): 87%; remaining binding at 1 µM (TAK1): 1.1%; remaining binding at 1 µM (ARK5): 94%; remaining binding at 1 µM (PIP5K1C): 85%; remaining binding at 1 µM (ULK3): 97%; remaining binding at 1 µM (MAP4K2): 0.05%; remaining binding at 1 µM (AKT2): 100%; remaining binding at 1 µM (LIMK2): 96%; remaining binding at 1 µM (FES): 12%; remaining binding at 1 µM (EGFR(L858R)): 76%; remaining binding at 1 µM (NEK2): 84%; remaining binding at 1 µM (ROCK1): 86%; remaining binding at 1 µM (SNRK): 84%; remaining binding at 1 µM (EPHA7): 3.3%; remaining binding at 1 µM (CIT): 0.1%; remaining binding at 1 µM (MINK): 0.6%; percent of control (EGFR(L747-T751del,Sins)): 29%
